Test results taken from patent US20240350430A1, “GROWTH INHIBITOR OF METASTATIC HUMAN PROSTATE CANCER CELLS” (Watanabe Oyster Laboratory Co., Ltd., priority 2021, published 2024).

How the values were obtained:
Format in all cases: cell-based, human
[1] = tested on: PC-3 cells; assay: Cell death of sub-confluent PC-3 cells (adherent cell counting)
Protocol: The PC-3 and DU-145 cells (1×10^5/in 1 ml of a culture fluid per hole using a 24-hole plate) were cultured in a DMEM culture fluid (containing 10% of FBS, 1% of P/S, and 1% of fungizone) under 5% of CO2, at 37° C., for three days, and when the cells reached sub-confluence, the culture fluid was exchanged for the one containing the DHMBA (0.01, 0.1, 1, 10, 100, or 1000 μM), and the cells were cultured for 24 and 48 hours. After the culture, the cells adhering to the bottom surface of the dish were removed and counted. In another experiment, after the culture for three days, when the cells reached sub-confluence, the culture fluid was exchanged for a culture fluid containing the DHMBA (1 or 10 μM) and a caspase-3 inhibitor (10 μM), and the cells were counted after the culture for 48 hours. Further, after the culture for three days, when the cells reached sub-confluence, the culture fluid was exchanged for a culture fluid obtained by adding gemcitabine (0.1, 1, 10, 50 or 100 nM) or CH223191 (1, 10, and 25 μM) to a DMEM culture fluid containing the DHMBA (1 or 10 μM) or not containing the DHMBA, and the cells were counted after the culture for 48 hours.
(§1) After the culture of the cells, 0.1 ml of 0.05% trypsin-EDTA solution obtained by dissolving the cells adhering to the bottom surface of the culture dish in PBS (Thermo Fisher Scientific, Waltham, MA, USA) not containing Ca^2+/Mg^2+ was added, incubation was performed at 37° C. for two minutes to release the adhering cells, and 0.9 ml of the DMEM culture fluid containing 10% of FBS and 1% of P/S was added to stop the reaction. The visible cells were counted by the Olympus MTV-3 microscope using a hemocytometer (Sigma-Aldrich).
(§2) In the drawing, the PC-3 (FIGS. 5(A) and 5(B)) and DU-145 (FIGS. 5(D) and 5(E)) cells (1×10^5/in 1 ml of a culture fluid per hole using a 24-hole plate) were cultured under 5% of CO2, at 37° C., for three days in a DMEM culture fluid (containing 10% of FBS, 1% of P/S, and 1% of fungizone), and when the cells reached sub-confluence, the culture fluid was exchanged for the one containing the DHMBA (0.01, 0.1, 1, 10, 100, or 1000 μM), and the cells were cultured for 24 and 48 hours. In the drawing, after the culture, the cells adhering to the dish were counted.
In another experiment, after the culture for three days, when the cells reached sub-confluence, for the PC-3 (FIG. 5(C)) or DU-145 (FIG. 5(F)) cells, the culture fluid was exchanged for a culture fluid containing the DHMBA (1 or 10 μM) and a caspase-3 inhibitor (10 μM), and the cells were counted after the culture for 48 hours. Further, after the culture for three days, when the cells reached sub-confluence, the culture fluid was exchanged for a culture fluid obtained by adding gemcitabine (0.1, 1, 10, 50 or 100 nM) or CH223191 (1, 10, and 25 μM) to a DMEM culture fluid containing the DHMBA (1 or 10 μM) or not containing the DHMBA, and the cells were counted after the culture for 48 hours. After the culture, the cells adhered to the dish were removed and counted. Each piece of data is shown with a mean value and a standard deviation of values obtained from eight wells of the different cultured cells. *p<0.001, comparison with the control (gray bar). 1-way ANOVA, Tukey-Kramer post-test.
as §2, with “The” for “In the drawing, the”, “PC-3” for “PC-3 (FIGS. 5(A) and 5(B)) and DU-145 (FIGS. 5(D) and 5(E))”, “gemcitabine (1,” for “DHMBA (0.01, 0.1, 1,”, “10, 50,” for “10,”, “250 nM),” for “1000 μM),”, “for” for “for 24 and”
After the culture for three days, when the cells reached sub-confluence, the culture fluid was exchanged for a culture fluid containing the DHMBA (1 or 10 μM) and gemcitabine (1, 10, or 100 nM), and the cells were counted after the culture for 48 hours. […]

[2] = tested on: PC-3 cells; assay: Cell growth of PC-3 cells (cell counting); details: three days; for cell growth in the presence of cell cycle inhibitor alone: roscovitine 10 or 100 nM, butyrate 10 or 100 μM, sulforaphane 1 or 10 nM
Protocol: (§3) The PC-3 and DU-145 cells (the cell number of 1×10^5/in 1 ml of a culture fluid per hole using a 24-hole plate) were cultured in a DMEM culture fluid (containing 10% of FBS, 1% of P/S, and 1% of fungizone) containing the DHMBA (1 and 10 μM) under 5% of CO2, at 37° C., for one, two, three, four, and six days. […] After the culture, 0.1 ml of 0.05% trypsin-EDTA solution obtained by dissolving the cells adhering to the bottom surface of the culture dish in PBS (Thermo Fisher Scientific, Waltham, MA, USA) not containing Ca^2+/Mg^2+ was added, incubation was performed at 37° C. for two minutes to release the adhering cells, and 0.9 ml of the DMEM culture fluid containing 10% of FBS and 1% of P/S was added to stop the reaction. The cell number in the cell suspension was counted by the method described in the item of “Measurement of Cell Number.”
as §1
FIG. 1(C) is a diagram in which the PC-3 cells (1×10^5 cells/per well of a 24-well plate) were cultured under 5% of CO2, at 37° C., for one to six days in a DMEM culture fluid (containing 10% of FBS, 1% of P/S, and 1% of fungizone) containing the DHMBA (10 μM).
(§4) In FIGS. 1(D) and 1(E), the PC-3 cells (1×10^5 cells/per well of a 24-well plate) were cultured under 5% of CO2, at 37° C., for three (FIG. 1D) and six (FIG. 1E) days in a DMEM culture fluid (containing 10% of FBS, 1% of P/S, and 1% of fungizone) containing the DHMBA (0.01, 0.1, 1, 10, 100, and 1000 μM). After the culture, the cells adhered to the bottom surface of the dish were removed and counted. […] 1-way ANOVA, Tukey-Kramer post-test.
FIGS. 3(A) and 3(B) are diagrams in which the PC-3 cells (1×10^5 cells/ml/per well of a 24-well plate) were cultured under 5% of CO2, at 37° C., for three days in a DMEM culture fluid (containing 10% of FBS, 1% of P/S, and 1% of fungizone) containing the DHMBA (10 μM) containing cell cycle inhibitors, roscovitine (10 and 100 nM), butyrate (10 and 100 μM), and sulforaphane (1 and 10 nM).
After the culture, the cells adhered to the dish were removed and counted. […] 1-way ANOVA, Tukey-Kramer post-test.
In the drawing, the PC-3 cells (1×10^5/in 1 ml of a culture fluid per hole using a 24-hole plate) were cultured under 5% of CO2, at 37° C., for three days in a DMEM culture fluid (containing 10% of FBS, 1% of P/S, and 1% of fungizone) in the presence of the DHMBA (10 μM) and an aryl hydrocarbon receptor inhibitor CH223191 (1, 10, or 25 μM) to examine the action on cell growth.

[3] = tested on: DU-145 cells; assay: Cell growth of DU-145 cells (cell counting); details: three days, roscovitine 10 or 100 nM, butyrate 10 or 100 μM, sulforaphane 1 or 10 nM
Protocol: as §3, §1
FIG. 2(C) is a diagram in which the DU-145 cells (1×10^5 cells/per well of a 24-well plate) were cultured under 5% of CO2, at 37° C., for one to six days in a DMEM culture fluid (containing 10% of FBS, 1% of P/S, and 1% of fungizone) containing the DHMBA (10 μM).
as §4, with “2(D)” for “1(D)”, “2(E),” for “1(E),”, “DU-145” for “PC-3”, “2D)” for “1D)”, “2E)” for “1E)”, “the” for “the bottom surface of the”

Structure (SMILES)	cell growth in the presence of cell cycle inhibitor alone [3]	cell growth in the presence of cell cycle inhibitor alone [2]	also measured
Nc1ccn([C@@H]2O[C@H](CO)[C@@H](O)C2(F)F)c(=O)n1 [gemcitabine, reference compound]	–	–	cell death by gemcitabine alone ([1]; gemcitabine 1, 10, 50, 100, and 250 nM, three days as printed): significant cell deaths
Cc1ccccc1N=Nc1ccc(NC(=O)c2ccnn2C)c(C)c1 [CH223191, 2-Methyl-2H-pyrazole-3-carboxylic acid (2-methyl-4-o-tolylazo-phenyl)-amide, reference compound]	–	–	action of CH223191 alone on cell growth ([2]; CH223191 1, 10, or 25 μM): no significant effect; cell death induction by CH223191 alone ([1]; sub-confluent, CH223191 1, 10, or 25 μM, 48 hours): did not cause the cell death induction
COc1cccc(-c2cc(=O)c3ccccc3o2)c1N [PD98059, reference compound]	–	–	cell growth in the presence of intracellular signaling inhibitor alone ([2]; wortmannin 10 or 100 nM, PD98059 1 or 10 μM, staurosporine 1 or 10 nM): inhibited
C[S+]([O-])CCCCN=C=S (centres unmarked) [sulforaphane, reference compound]	inhibited	inhibited	–
CC[C@H](CO)Nc1nc(NCc2ccccc2)c2ncn(C(C)C)c2n1 [roscovitine, reference compound]	inhibited	inhibited	–
